Data reported in the supplement of paper PMC10307832.

Tests used:
Experiment in all cases: relative viability (nuclei count vs DMSO), 5 days (fraction); higher = more cells survive
[1] = compound: C1CSC2=C(C(=O)N1)SC3=C2C=C(C=C3)O [kb NB 142-70] + CC1(C)CCC(c2ccc(Cl)cc2)=C(CN2CCN(c3ccc(C(=O)NS(=O)(=O)c4ccc(N[C@H](CCN5CCOCC5)CSc5ccccc5)c(S(=O)(=O)C(F)(F)F)c4)cc3)CC2)C1 [Navitoclax] (partner 0.5 µM)
In short: (§1)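 One day after seeding in 1536-well plates, lung cancer cell lines were dosed by pin tool. Dosing was either single-drug or a fixed anchor-drug dose plus five library-drug doses (not always all listed) in √10 steps. After 5 days, nuclei were stained in one fix-and-stain step and counted on 4× images, and relative viability is the nuclei count of treated wells over that of vehicle wells, given as the median of duplicate plates.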

[2] = compound: NCC(=O)Nc1ccc(-n2nc(C(F)(F)F)cc2-c2ccc3c(ccc4ccccc43)c2)cc1
In short: (§2)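 Lung cancer cell lines in 1536-well plates were kept overnight at 37 °C, then pinned with five library-drug doses (not always all listed) spaced by √10 on vehicle-anchored plates. After 5 days without medium change, cells were fixed, permeabilised and Hoechst-stained in one step, imaged at 4×, and nuclei were counted with MetaXpress. Viability is treated-well nuclei divided by vehicle-well nuclei, taken as the median over plates. Plates passed only with control CV below 25% and at least one doubling.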

kb NB 142-70 = compound: C1CSC2=C(C(=O)N1)SC3=C2C=C(C=C3)O [kb NB 142-70]
In short: as §2

[3] = compound: C1CSC2=C(C(=O)N1)SC3=C2C=C(C=C3)O [kb NB 142-70] + N=C(N)NC(=N)NCCc1ccccc1 [Phenformin] (partner 250 µM)
In short: as §1

[4] = compound: NCC(=O)Nc1ccc(-n2nc(C(F)(F)F)cc2-c2ccc3c(ccc4ccccc43)c2)cc1 + N=C(N)NC(=N)NCCc1ccccc1 [Phenformin] (partner 250 µM)
In short: as §1

| Cell Line | relative viability ([1]; first compound 0.1 µM) | relative viability ([1]; first compound 1 µM) | relative viability ([1]; first compound 3.162 µM) | relative viability ([2]; 0.02 µM) | relative viability ([2]; 0.06325 µM) | relative viability ([2]; 0.2 µM) | relative viability ([2]; 0.6325 µM) | relative viability ([2]; 2 µM) | relative viability (kb NB 142-70; 0.1 µM) | relative viability (kb NB 142-70; 1 µM) | relative viability (kb NB 142-70; 3.162 µM) | relative viability ([3]; first compound 0.1 µM) | relative viability ([3]; first compound 1 µM) | relative viability ([3]; first compound 3.162 µM) | relative viability ([4]; first compound 0.02 µM) | relative viability ([4]; first compound 0.06325 µM) | relative viability ([4]; first compound 0.2 µM) | relative viability ([4]; first compound 0.6325 µM) | relative viability ([4]; first compound 2 µM) |
| --- | --- | --- | --- | --- | --- | --- | --- | --- | --- | --- | --- | --- | --- | --- | --- | --- | --- | --- | --- |
| Calu-6 | 0.859 | 0.891 | 0.376 | 0.962 | 1.05 | 1.03 | 1 | 0.977 | 1.04 | 0.996 | 0.614 | – | – | – | – | – | – | – | – |
| LC-2-ad | 0.537 | 0.473 | 0.262 | 0.951 | 1.08 | 1 | 0.968 | 1.01 | 1.09 | 0.977 | 0.886 | 0.618 | 0.536 | 0.458 | 0.531 | 0.643 | 0.609 | 0.614 | 0.649 |
| CAL-12T | 1.34 | 1.16 | 1.08 | 0.957 | 1.01 | 1.05 | 0.949 | 1.08 | 0.985 | 1.07 | 0.904 | 0.565 | 0.601 | 0.485 | 0.572 | 0.601 | 0.586 | 0.576 | 0.627 |
| RERF-LC-KJ | 1.05 | 0.762 | 0.468 | 1.05 | 1.01 | 0.993 | 1.01 | 1 | 0.988 | 1.04 | 0.921 | 0.409 | 0.463 | 0.445 | 0.41 | 0.458 | 0.412 | 0.409 | 0.403 |
| NCI-H1650 | 1.25 | 1.24 | 0.89 | 0.913 | 0.995 | 0.847 | 0.971 | 1.09 | 0.988 | 1.02 | 0.849 | 0.457 | 0.525 | 0.324 | 0.426 | 0.49 | – | 0.515 | 0.449 |
| BEN | 0.0749 | 0.0596 | 0.0617 | 0.99 | 0.972 | 0.994 | 0.894 | 0.975 | 0.961 | 0.894 | 0.738 | 0.25 | 0.263 | 0.239 | 0.249 | 0.239 | 0.302 | 0.269 | 0.228 |
| ABC-1 | – | – | – | 0.914 | 0.926 | – | 0.996 | 0.86 | 0.984 | 0.985 | 0.494 | 0.223 | 0.24 | 0.166 | 0.248 | 0.233 | – | 0.225 | 0.245 |
| NCI-H1299 | 1.07 | 1.13 | 1.1 | 0.993 | 0.982 | 1.02 | 0.992 | 1 | 0.977 | 1.06 | 1.1 | – | – | – | – | – | – | – | – |
| EBC-1 | 0.415 | 0.322 | 0.22 | 1.01 | 1.03 | 1.07 | 1.02 | 1.01 | 1.01 | 1 | 0.643 | – | – | – | – | – | – | – | – |
| NCI-H1648 | – | – | – | 0.751 | 0.939 | 0.9 | 0.989 | 1.11 | 0.789 | 0.925 | 0.748 | – | – | – | – | – | – | – | – |
| NCI-H650 | – | – | – | 0.866 | 0.977 | 0.981 | 0.866 | 1.02 | 1.02 | 0.906 | 0.825 | 0.462 | 0.465 | 0.429 | 0.422 | 0.44 | 0.48 | 0.379 | 0.474 |
| NCI-H358 | – | – | – | 0.965 | 0.993 | 0.925 | 0.939 | 0.94 | 0.943 | 0.725 | 0.137 | 0.279 | 0.187 | 0.0752 | 0.335 | 0.319 | 0.293 | 0.365 | 0.343 |
| NCI-H1563 | – | – | – | 0.992 | 0.954 | 0.997 | 1.02 | 0.968 | 1.04 | 1.02 | 1 | 0.656 | 0.688 | 0.624 | 0.606 | 0.664 | 0.658 | 0.633 | 0.712 |
| NCI-H522 | – | – | – | 0.886 | 0.978 | 0.922 | 0.96 | 0.925 | 1.04 | 0.784 | 0.635 | 0.633 | 0.561 | 0.522 | – | 0.66 | 0.585 | 0.664 | 0.651 |
| IA-LM | 0.807 | 0.843 | 0.651 | 1.01 | 1.03 | 1.02 | 1.08 | 0.996 | 0.818 | 1.05 | 1.06 | – | – | – | – | – | – | – | – |
| NCI-H1703 | 1.04 | 1.05 | 0.93 | 1.01 | 0.816 | 0.972 | 0.889 | 0.812 | 0.959 | 0.973 | 1.23 | – | – | – | – | – | – | – | – |
| LCLC-103H | – | – | – | 0.957 | 1.07 | 0.963 | 0.979 | 0.966 | 1.03 | 0.984 | 1.03 | 0.352 | 0.317 | 0.318 | 0.344 | 0.331 | 0.332 | 0.327 | 0.315 |
| SW 900 | – | – | – | 0.717 | 0.941 | 0.856 | 0.784 | 0.814 | 0.864 | 1.02 | 0.744 | 0.495 | 0.521 | 0.193 | – | 0.729 | 0.599 | 0.587 | 0.661 |
